Results on six compounds are retold here after ChEMBL document CHEMBL2021839, “Pyridine alkaloids from Senna multijuga as acetylcholinesterase inhibitors” (J Nat Prod, 2012).

Structures are written as SMILES.

Test [1] addresses Acetylcholinesterase (Electrophorus electricus) (UniProt O42275). As to the kind of experiment: Inhibition of electric eel AChE assessed as minimum concentration required to inhibit enzyme activity after 20 mins by TLC bioautographic assay.
Test [2] shares this target. As to the kind of experiment: Inhibition of electric eel AChE using acetylthiocholine as substrate at 350 uM by Ellman's method.

Acetylcholinesterase (Electrophorus electricus), sequence (O42275 24-633 limits assumed): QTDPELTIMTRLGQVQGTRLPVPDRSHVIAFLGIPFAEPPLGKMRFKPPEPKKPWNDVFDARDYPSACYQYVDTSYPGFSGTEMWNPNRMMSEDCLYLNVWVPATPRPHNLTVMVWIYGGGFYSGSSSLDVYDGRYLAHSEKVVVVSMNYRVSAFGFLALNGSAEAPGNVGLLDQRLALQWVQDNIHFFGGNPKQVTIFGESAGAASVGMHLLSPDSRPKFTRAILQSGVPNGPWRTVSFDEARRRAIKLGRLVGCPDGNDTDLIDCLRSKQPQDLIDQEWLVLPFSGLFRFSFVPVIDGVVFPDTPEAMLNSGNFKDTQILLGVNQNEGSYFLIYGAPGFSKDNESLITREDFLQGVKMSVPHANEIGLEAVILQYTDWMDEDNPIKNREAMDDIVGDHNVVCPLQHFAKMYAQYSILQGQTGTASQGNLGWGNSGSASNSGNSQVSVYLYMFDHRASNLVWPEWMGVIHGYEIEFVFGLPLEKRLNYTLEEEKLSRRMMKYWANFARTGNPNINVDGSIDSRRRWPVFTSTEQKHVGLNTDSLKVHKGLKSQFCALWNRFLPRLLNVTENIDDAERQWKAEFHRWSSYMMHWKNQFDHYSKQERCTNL

`CNC(=O)Oc1ccc2c(c1)[C@]1(C)CCN(C)[C@@H]1N2C`: the MIC in test [1] stood at 0.1 µg. Further, in test [2], the inhibition is 94%.

On to `COC(=O)CCCc1ccc(O)c(C)n1`, for which the MIC in test [1] was 3 µg. In test [2], this compound showed an inhibition of 40%.

For the compound `CCCCC(O)CCCCCCCc1ccc(O)c(C)n1` (racemic), in test [1], the MIC is 1.5 µg. The compound also registered an inhibition in test [2] of 19%.

On to `CCCCCC(O)CCCCCCc1ccc(O)c(C)n1` (racemic), for which the MIC in test [1] turned out to be 0.8 µg. Moreover, the inhibition in test [2] stood at 52%.

Regarding `Cc1nc(CCCCCCC(O)CCCCCO)ccc1O` (racemic), the MIC in test [1] is 1.5 µg. Further, the inhibition in test [2] is 51%.

`Cc1nc(CCCCCCCC(O)CCCCO)ccc1O` (racemic): the MIC in test [1] was determined as 6 µg. Besides, the inhibition in test [2] came to 28%.
